Test results reported in US10919935B2, “Antimicrobial peptide derived from myxinidin peptide and uses thereof” (INDUSTRY-ACADEMIC COOPERATION FOUNDATION, CHOSUN UNIVERSITY, priority 2015, dated 2021).
Residues, ends and D or L forms follow the SMILES beside them.

Tests used:
[1] = tested on: L. monocytogenes; test: Anti-biofilm activity (crystal violet); format: cell-based, Listeria monocytogenes
Protocol: (§1) To compare the antimicrobial activity of the peptide produced by the method of Example 1, the inventors of the present invention measured the biofilm inhibitory concentration value of the peptide showing no dissociation of bacterial cells.
(§2) Specifically, the Gram-negative bacteria and Gram-positive bacteria among the bacterial strains described in the above Table 2 were cultured in each medium to a mid-log phase. Then, after dilution to bacterial cell concentration of 5×10^5 cells/100 μl, the cells were inoculated to a microtiter plate (NUNC, USA). Thereafter, myxinidin 1, myxinidin 2, or myxinidin 3 peptides which have been synthesized in Example 1 above was diluted, 1/10 times for each, with physiological saline (PBS) solution in a 96-well plate. After adding the cells to a plate, the cells were cultured for 12 hours at 37° C. After removing the supernatant, the cells were fixed with 100% methanol and reacted for 2 hours with Crystal violet staining solution followed by rinsing for 3 times. Then, after dissolving in 95% ethanol, the absorbance was measured at a wavelength of 595 nm by using a microtiter plate reader (Merck Elisa reader, Germany) to determine the biofilm inhibitory concentration value of each bacterial strain. As a control group, myxinidin as a mother peptide was subjected to the same processes as above and the biofilm inhibitory concentration value of each bacterial strain was obtained.

[2] = tested on: P. aeruginosa 5018; test: MIC at salt concentration (Example 3); format: cell-based, Pseudomonas aeruginosa
Protocol: (§3) To compare the antimicrobial activity of the peptide produced by the method of Example 1, the inventors of the present invention measured the minimum growth inhibitory concentration (MIC), which is minimum concentration of the peptide showing no dissociation of bacterial cells, at salt concentration.
(§4) Specifically, the bacterial strain described in the above Table 2 was cultured in each medium to a mid-log phase. Then, after dilution to bacterial cell concentration of 2×10^5 cells/100 μl, the cells were inoculated to a microtiter plate (NUNC, USA). Thereafter, myxinidin 1, myxinidin 2, or myxinidin 3 peptides which have been synthesized in Example 1 above was diluted, 1/2 times for each, with BSA+150 mM sodium chloride (NaCl) solution, physiological saline (PBS) solution, or 10 mM sodium phosphate (SP) solution in a 96-well plate. After adding the cells to a plate, the cells were cultured for 12 hours at 37° C. By using a microtiter plate reader (Merck Elisa reader, Germany), the absorbance was measured at a wavelength of 600 nm to determine the MIC value of each bacterial strain. As a control group, myxinidin as a mother peptide was subjected to the same processes as above and the MIC value of each bacterial strain was obtained.

[3] = tested on: P. aeruginosa 3592; test: MIC at salt concentration (Example 3); format: cell-based, Pseudomonas aeruginosa
Protocol: as §3, §4

[4] = tested on: P. aeruginosa; test: MIC at salt concentration (Example 3); format: cell-based, Pseudomonas aeruginosa
Protocol: as §3, §4

[5] = tested on: S. aureus; test: Anti-biofilm activity (crystal violet); format: cell-based, Staphylococcus aureus
Protocol: as §1, §2

[6] = in vitro; format: cell-based; settings: human, NHK cells (normal human keratinocytes)
Protocol: To determine the cytotoxicity of the peptide produced by the method of Example 1 in normal cell line, toxicity was measured by using NHK cells (Normal Human Keratinocyte cells).
Specifically, NHK cells which have been cultured in Epilife medium with 60 μM calcium (Gibco, USA) containing 10% HKGS (Human Keratinocyte Growth Supplement) (Gibco, USA) were aliquoted in a 96-well plate to have 1×10^4 cells per well. After culturing them for 24 hours, the cells were subjected to a treatment with myxinidin, myxinidin 1, myxinidin 2, or myxinidin 3 peptide, each at concentration of 3.125, 6.25, 12.5, or 25.0 μM/well, followed by reaction for 24 hours in a 5% CO2 incubator. After the culture, a reaction solution containing 5 mg/ml MTT (Thiazolyl Blue Tetrazolium Bromide) dissolved in physiological saline (PBS) was added in an amount of 20 μl to each well and allowed to react for 4 hours. After that, the supernatant was removed, and, by dissolving MTT crystals that are formed by adding 200 μl of DMSO, the absorbance at 560 nm was measured to determine the cell survival ability.

[7] = tested on: Escherichia coli CCARM 1229; format: cell-based
Protocol: (§5) To compare the antimicrobial activity of the peptide produced by the method of Example 1, the inventors of the present invention measured the growth minimum inhibitory concentration (MIC), which is minimum concentration of the peptide showing no dissociation of bacterial cells.
(§6) Specifically, the bacterial strain described in the following Table 2 was purchased and cultured in each medium to a mid-log phase. Then, after dilution to bacterial cell concentration of 2×10^5 cells/100 μl, the cells were inoculated to a microtiter plate (NUNC, USA). Thereafter, myxinidin 1, myxinidin 2, or myxinidin 3 peptides which have been synthesized in Example 1 above was diluted, 1/2 times for each, with BSA (bovine serum albumin) solution in a 96-well plate. After adding the cells to a plate, the cells were cultured for 12 hours at 37° C. By using a microtiter plate reader (Merck Elisa reader, Germany), the absorbance was measured at a wavelength of 600 nm to determine the MIC value of each bacterial strain. As a control group, myxinidin as a mother peptide was subjected to the same processes as above and the MIC value of each bacterial strain was obtained.

[8] = tested on: Salmonella typhimurium CCARM 8013; format: cell-based
Protocol: as §5, §6

[9] = tested on: Escherichia coli 1238; test: MIC at salt concentration (Example 3); format: cell-based
Protocol: as §3, §4

[10] = tested on: Escherichia coli 1229; test: MIC at salt concentration (Example 3); format: cell-based
Protocol: as §3, §4

[11] = tested on: Escherichia coli; test: MIC at salt concentration (Example 3); format: cell-based
Protocol: as §3, §4

[12] = tested on: L. monocytogenes; test: MIC at salt concentration (Example 3); format: cell-based, Listeria monocytogenes
Protocol: as §3, §4

[13] = NaCl (BSA+150 mM sodium chloride)

CC[C@H](C)[C@H](NC(=O)[C@H](Cc1c[nH]c2ccccc12)NC(=O)[C@H](CCCNC(=N)N)NC(=O)[C@@H](NC(=O)[C@@H](N)CCCNC(=N)N)[C@@H](C)CC)C(=O)N[C@@H](CC(C)C)C(=O)N[C@@H](CCCNC(=N)N)C(=O)N[C@@H](Cc1ccc(O)cc1)C(=O)N[C@@H](Cc1c[nH]c2ccccc12)C(=O)N[C@@H](CCCNC(=N)N)C(=O)N[C@@H](Cc1c[nH]c2ccccc12)C(=O)N[C@@H](CO)C(N)=O [Myxinidin 3, RIRWILRYWRWS-NH2] (H-RIRWILRYWRWS-NH2; N-terminus assumed)
Biofilm forming ability ([1]; peptide 0.25 μM): 94% | Biofilm forming ability ([1]; peptide 0.5 μM): 87% | Biofilm forming ability ([1]; peptide 1 μM): 87% | Biofilm forming ability ([1]; peptide 2 μM): 83% | Biofilm forming ability ([1]; peptide 4 μM): 22% | Biofilm forming ability ([1]; peptide 8 μM): 21% | Biofilm forming ability ([1]; peptide 16 μM): 18% | Biofilm forming ability ([1]; peptide 32 μM): 16% | Antimicrobial activity (MIC) according to salt concentration [2, 13]: 8 | Antimicrobial activity (MIC) according to salt concentration ([2]; PBS): 4 | Antimicrobial activity (MIC) according to salt concentration ([2]; SP (10 mM sodium phosphate)): 2 | Antimicrobial activity (MIC) according to salt concentration [3, 13]: 8 | Antimicrobial activity (MIC) according to salt concentration ([3]; PBS): 4 | Antimicrobial activity (MIC) according to salt concentration ([3]; SP (10 mM sodium phosphate)): 4 | Antimicrobial activity (MIC) according to salt concentration [4, 13]: 4 | Antimicrobial activity (MIC) according to salt concentration ([4]; PBS): 4 | Antimicrobial activity (MIC) according to salt concentration ([4]; SP (10 mM sodium phosphate)): 4 | Biofilm forming ability ([5]; peptide 0.25 μM): 85% | Biofilm forming ability ([5]; peptide 0.5 μM): 84% | Biofilm forming ability ([5]; peptide 1 μM): 84% | Biofilm forming ability ([5]; peptide 2 μM): 71% | Biofilm forming ability ([5]; peptide 4 μM): 28% | Biofilm forming ability ([5]; peptide 8 μM): 17% | Biofilm forming ability ([5]; peptide 16 μM): 16% | Biofilm forming ability ([5]; peptide 32 μM): 14% | viability at 24 h, 3.125 µM [6]: 100% | viability at 24 h, 6.25 µM [6]: 100% | viability at 24 h, 12.5 µM [6]: 100% | viability at 24 h, 25 µM [6]: 100% | Minimum growth inhibitory concentration [7]: 1 µM | Minimum growth inhibitory concentration [8]: 4 µM | Antimicrobial activity (MIC) according to salt concentration [9, 13]: 8 | Antimicrobial activity (MIC) according to salt concentration ([9]; PBS): 4 | Antimicrobial activity (MIC) according to salt concentration ([9]; SP (10 mM sodium phosphate)): 2 | Antimicrobial activity (MIC) according to salt concentration [10, 13]: 2 | Antimicrobial activity (MIC) according to salt concentration ([10]; PBS): 2 | Antimicrobial activity (MIC) according to salt concentration ([10]; SP (10 mM sodium phosphate)): 2 | Antimicrobial activity (MIC) according to salt concentration [11, 13]: 8 | Antimicrobial activity (MIC) according to salt concentration ([11]; PBS): 2 | Antimicrobial activity (MIC) according to salt concentration ([11]; SP (10 mM sodium phosphate)): 2 | Antimicrobial activity (MIC) according to salt concentration [12, 13]: 2 | Antimicrobial activity (MIC) according to salt concentration ([12]; PBS): 4 | Antimicrobial activity (MIC) according to salt concentration ([12]; SP (10 mM sodium phosphate)): 4
